How the values were obtained:
Assay in all cases: relative viability (nuclei count vs DMSO), 5 days (fraction); higher = more cells survive
[1] = compound: O=C(Nc1cccc(C(F)(F)F)c1)Nc1cc(S(=O)(=O)NC2CC2)ccc1-c1ccsc1 [AGI-6780]
How it was run: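 Lung cancer cell lines were seeded into 1536-well plates, kept overnight at 37 °C and pinned with five library-drug doses (not always all listed) spaced by √10. After 5 days, nuclei were Hoechst-stained, imaged at 4× and counted with MetaXpress. Viability is treated-well nuclei over vehicle-well nuclei, taken as a median across plates. Plates needed control CV below 25% and at least one doubling.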

[2] = compound: O=C(Nc1cccc(C(F)(F)F)c1)Nc1cc(S(=O)(=O)NC2CC2)ccc1-c1ccsc1 [AGI-6780] + CC1(C)CCC(c2ccc(Cl)cc2)=C(CN2CCN(c3ccc(C(=O)NS(=O)(=O)c4ccc(N[C@H](CCN5CCOCC5)CSc5ccccc5)c(S(=O)(=O)C(F)(F)F)c4)cc3)CC2)C1 [Navitoclax] (partner 0.5 µM)
How it was run: (§1)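 Lung cancer cell lines were seeded in 1536-well plates and dosed by pin tool the next day, with either a single drug or a fixed anchor-drug dose combined with five library-drug doses (not always all listed) spaced in √10 steps. Five days later, one step fixed the cells and stained their nuclei (final 0.05% Triton X-100, 1% formaldehyde, 1 ug/ml Hoechst), and nuclei were counted on 4× images. Relative viability is the nuclei count in treated wells divided by the count in vehicle wells, and each value is the median of duplicate plates.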

[3] = compound: O=C(Nc1cccc(C(F)(F)F)c1)Nc1cc(S(=O)(=O)NC2CC2)ccc1-c1ccsc1 [AGI-6780] + Cc1cc(Nc2cc(N3CCN(C)CC3)nc(Sc3ccc(NC(=O)C4CC4)cc3)n2)n[nH]1 [Tozasertib] (partner 0.1 µM)
How it was run: as §1

[4] = compound: O=C(Nc1cccc(C(F)(F)F)c1)Nc1cc(S(=O)(=O)NC2CC2)ccc1-c1ccsc1 [AGI-6780] + N=C(N)NC(=N)NCCc1ccccc1 [Phenformin] (partner 250 µM)
How it was run: as §1

Cell Line | relative viability ([1]; 0.08 µM) | relative viability ([1]; 0.253 µM) | relative viability ([1]; 0.8 µM) | relative viability ([1]; 2.53 µM) | relative viability ([1]; 8 µM) | relative viability ([2]; first compound 0.08 µM) | relative viability ([2]; first compound 0.253 µM) | relative viability ([2]; first compound 0.8 µM) | relative viability ([2]; first compound 2.53 µM) | relative viability ([2]; first compound 8 µM) | relative viability ([3]; first compound 0.08 µM) | relative viability ([3]; first compound 0.253 µM) | relative viability ([3]; first compound 0.8 µM) | relative viability ([3]; first compound 2.53 µM) | relative viability ([3]; first compound 8 µM) | relative viability ([4]; first compound 0.08 µM) | relative viability ([4]; first compound 0.253 µM) | relative viability ([4]; first compound 0.8 µM) | relative viability ([4]; first compound 2.53 µM) | relative viability ([4]; first compound 8 µM)
HCC-15 | 1.09 | 1.06 | 1.1 | 0.808 | 1.05 | 0.727 | 0.698 | 0.743 | 0.641 | 0.684 | 0.625 | 0.438 | 0.547 | 0.186 | 0.458 | 0.551 | 0.525 | 0.505 | 0.428 | 0.47
HCC-44 | 0.955 | 1.01 | 0.995 | 1.04 | 0.959 | 0.969 | 1.02 | 0.94 | 0.856 | 1.11 | 0.831 | 1.02 | 1.25 | 0.981 | 0.814 | 0.182 | 0.202 | 0.354 | 0.175 | 0.257
HCC-78 | 0.876 | 1.04 | 1.05 | 0.982 | 1.02 | 0.845 | 0.789 | 0.9 | 0.779 | 0.801 |  | 0.404 | 0.452 | 0.304 | 0.438 |  | 0.735 | 0.814 | 0.716 | 0.607
HCC-366 | 1.01 | 1.08 | 1.01 | 0.96 | 1.02 | 1.03 | 1.12 | 0.984 | 0.944 | 1.05 | 0.102 | 0.184 | 0.0941 | 0.0598 | 0.0437 | 0.615 | 0.667 | 0.589 | 0.321 | 0.682
HCC-827 | 1.06 | 1.06 | 1.01 | 1.07 | 1.02 | 1.09 | 1.06 | 1 | 1.01 | 0.935 | 0.226 | 0.433 | 0.41 | 0.405 | 0.432 | 0.423 | 0.39 | 0.413 | 0.395 | 0.376
HOP-62 | 1.03 | 1.01 | 0.994 | 0.984 | 1.03 | 0.974 | 1.01 | 1.13 | 1.11 | 1.19 | 0.328 | 0.366 | 0.398 | 0.302 | 0.408 | 0.684 | 0.663 | 0.876 | 0.689 | 0.763
LC-2-ad | 1.02 | 1.05 | 1.1 | 0.96 | 0.996 | 0.552 | 0.468 | 0.505 | 0.249 | 0.659 | 0.433 | 0.477 | 0.447 | 0.327 | 0.468 | 0.623 | 0.59 | 0.605 | 0.54 | 0.505
LCLC-97TM1 | 0.959 | 0.983 | 1.03 | 0.758 | 0.966 | 0.503 | 0.702 | 0.642 |  | 0.431 | 0.217 | 0.265 | 0.291 | 0.195 | 0.197 | 0.402 | 0.409 | 0.419 | 0.439 | 0.436

Source: the supplement of paper PMC10307832
